Data reported in patent publication US20050020495A1, “Antiretroviral compositions comprising thymosin alpha peptides and protease inhibitors” (priority 2001, published 2005).
Ends that are not written are not given here.

Tests used:
HIV [1] = assay: Randomised trial of Tα1 injections versus no injections in clinically stable HIV patients; TREC response in PBMCs, lymphocyte subsets, tolerability; assay type: in vivo, human
Protocol: Efficacy of HIV treatment is shown by evaluating TREC response in peripheral blood mononuclear cells (PBMCs) to treatment with Tα1 plus an HIV inhibitory agent.
Twenty clinically stable patients with viral loads <400 copies/ml and CD4 counts less than 200 cells/μl were randomised to receive 3.2 mg […] subcutaneous injections twice weekly or no injections for 12 weeks. CD4 and CD8 counts, CD45 RO+ and RA+ subsets and T cell re-excision circles (TREC) in peripheral blood mononuclear cells (PBMCs) were measured every four weeks, along with regular clinical assessments and routine laboratory tests.

HIV [2] = conditions: cited from earlier work

## Thymosin α1 (SDAAVDTSSEITTKDLKEKKEVVEEAEN; not fully specified (N-terminus); ends and bridges not checked; UniProt P06454 2-29, looked up) [Tα1, 28-amino acid thymic peptide hormone with immunomodulatory properties, homologous to a natural product isolated from thymosin fraction 5 of calf thymuses]
HIV [1]; 3.2 mg subcutaneous twice weekly for 12 weeks
  Signs of toxicity during the trial: no patients taking the medication developed signs of toxicity
HIV [1]; 3.2 mg subcutaneous twice weekly for 12 weeks, 13 patients on Tα1
  Tolerability: well tolerated
HIV [1]; over the 12 week study period
  Changes in CD4, CD8 and CD45 lymphocyte subsets versus controls: did not differ between the groups
HIV [1]; week 12
  Mean TREC levels relative to control group: 20 times
  Patients with detectable TREC levels versus control patients: far more of the Tα1 group had detectable TREC levels than control patients
  TREC levels in PBMCs versus controls: significant increase
HIV [2]; given in combination with either IL-2 or interferon-α
  CD4 counts: induced increases in CD4 counts
HIV [2]; patients taking zidovudine monotherapy, contrasted with IL-2 or INF-α
  Systemic adverse reactions: virtual absence of any significant systemic adverse reactions
